Reference: patent publication US10550110B2, “Tetrahydroquinoline sulfonamide derivatives as inverse agonists of retinoid-related orphan receptor gamma (ROR gamma (t))” (GALDERMA RESEARCH & DEVELOPMENT, priority 2014, dated 2020)
pIC50: −log10 of the molar value. Like-named read-outs stand apart in the source and are kept apart here.

Assays:
[1] = tested on: IL-17A secretion by CD4+ cells; assay: IL-17A secretion by CD4+ cells (HTRF); format: cell-based; conditions: human peripheral blood CD4+ cells activated with anti-CD3 and anti-CD28, 4 days incubation, IL-17A by HTRF, read-out: IC50 hCD4/IL17
Method: This model allows measurement of the effect of inhibitors on IL-17A secretion by CD4+ cells. The cells are frozen CD4+ cells (STEMCELL, #70026), isolated from peripheral human blood and activated with anti-CD3 and anti-CD28 antibodies. The amount of IL-17A secreted is measured by the TR-FRET (kit HTRF® Human Interleukin 17A (Cisbio, #64H17PEC)) technology.
The cells are rapidly thawed, resuspended in their culture medium (RPMI inactivated 10% FCS) supplemented with soluble anti-CD28 antibodies and seeded (100 000 cells/well) in 96-well plates precoated with anti-CD3 antibodies. The cells are then treated with the ranges of inhibitors to be tested (from 1000 nM to 0.05 nM, 0.1% DMSO). After 4 days of incubation, the HTRF signal is measured using a microplate reader (λexcitation=337 nm, λemission=620/665 nm). The ratios obtained (665/620) are normalized relative to the positive control (cells activated with anti-CD3 and anti-CD28, 0.1% DMSO). The IC50 values are calculated from a 4-parameter logistic model using the XLFit software (IDBS).

[2] = target: T1, ROR gamma ligand-binding domain (LBD) (hRORg) (Homo sapiens, UniProt P51449); assay: GAL4-RORγ transactivation (luciferase reporter, HG5LN HeLa line); format: cell-based; conditions: HG5LN HeLa line with GAL4 DBD fused to ROR gamma LBD, 18 hours incubation
T1 construct: expressed in transfected cells; host or cells: HG5LN (HeLa line with GAL4-responsive luciferase reporter)
T1 sequence (P51449 269-508 limits assumed): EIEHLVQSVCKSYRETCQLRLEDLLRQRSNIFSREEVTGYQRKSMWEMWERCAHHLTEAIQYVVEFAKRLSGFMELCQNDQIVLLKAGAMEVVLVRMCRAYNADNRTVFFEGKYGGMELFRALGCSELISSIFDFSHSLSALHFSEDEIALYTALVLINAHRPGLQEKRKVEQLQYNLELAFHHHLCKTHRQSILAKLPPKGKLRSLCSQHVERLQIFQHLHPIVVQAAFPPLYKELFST
Excerpt: GAL4—RORγ Transactivation
The RORγ transactivation model was developed from the line HG5LN, which is a HeLa line that stably expresses a luciferase reporter gene controlled by a pentamer of the GAL4 recognition domain of yeast and of a β-globin promoter. The HG5LN line was stably transfected by the DNA-binding domain (DBD) of GAL4 fused to the ROR gamma ligand-binding domain (LBD). Molecules that inhibit the ROR gamma constitutive activity reduce the luciferase expression, thus leading to a reduction in the emitted luminescence.
The cells are seeded in 384-well plates (5000 cells in 45 μL/well of culture medium containing 10% fetal calf serum) and incubated for 4 hours at 37° C., 5% CO2. 5 μL of the test molecules (compounds described in the tables described above) are then added to each well and the plates are incubated for 18 hours at a temperature of 37° C. under 5% of CO2. 20 μL of luciferase substrate (Promega) are added to each well and the luminescence emitted is read by a microplate reader.
The luminescence units (“RLU”) are normalized by positive controls (“POS” containing a saturated concentration of N-(2,2,2-trifluoroethyl)-N-[4-[2,2,2-trifluoro-1-hydroxy-1-(trifluoromethyl)ethyl]phenyl])benzenesulfonamide and negative controls (“NEG” containing DMSO): % inhibition=((RLU-NEG)*100)/(POS-NEG). The IC50 values are calculated from a 4-parameter logistic model using the XLFit software (IDBS).

SMILES | pIC50 ([1]; 96 h) | pIC50 [2] | pIC50 [1]
CCc1ccc(N(CC(C)C)S(=O)(=O)c2ccc3c(c2)C(O)CCN3CC2(C)COC2)cc1 (stereo not shown) [Compound 19, 4-hydroxy-1-(3-methyloxetan-3-ylmethyl)-1,2,3,4-tetrahydroquinoline-6-sulfonic acid (4-ethylphenyl)isobutylamide] | > 7.00 | 6.00 to 7.00 | 
CCc1ccc(N(CC(C)C)S(=O)(=O)c2ccc3c(c2)C(O)CCN3CC2(F)CCOCC2)cc1 (stereo not shown) [Compound 15, 1-(4-fluorotetrahydropyran-4-ylmethyl)-4-hydroxy-1,2,3,4-tetrahydroquinoline-6-sulfonic acid (4-ethylphenyl)isobutylamide] | > 7.00 | 6.00 to 7.00 | 
CCc1ccc(N(CC(C)C)S(=O)(=O)c2ccc3c(c2)C(O)CCN3Cc2ccnc(F)c2)cc1 (stereo not shown) [Compound 11, 1-(2-fluoropyridin-4-ylmethyl)-4-hydroxy-1,2,3,4-tetrahydroquinoline-6-sulfonic acid (4-ethylphenyl)isobutylamide] | > 7.00 | > 7.00 | 
CCc1ccc(N(CC(C)C)S(=O)(=O)c2ccc3c(c2)C(O)CCN3CC2CCOCC2)cc1 (racemic) [Compound 2, 4-hydroxy-1-(tetrahydropyran-4-ylmethyl)-1,2,3,4-tetrahydroquinoline-6-sulfonic acid (4-ethylphenyl)isobutylamide] | 6.00 to 7.00 | > 7.00 | 
CCc1ccc(N(CC(C)C)S(=O)(=O)c2ccc3c(c2)C(O)CCN3CC2CCOCC2)cc1 (single isomer, unassigned) [Enantiomer 1, 4-hydroxy-1-(tetrahydropyran-4-ylmethyl)-1,2,3,4-tetrahydroquinoline-6-sulfonic acid (4-ethylphenyl)isobutylamide] |  | > 7.00 | > 7.00
CCc1ccc(N(CC(C)C)S(=O)(=O)c2ccc3c(c2)C(O)CCN3CC2CN(C(=O)OC)C2)cc1 (stereo not shown) [Compound 46, methyl ester of 3-{6-[(4-ethylphenyl)isobutylsulfamoyl]-4-hydroxy-3,4-dihydro-2H-quinolin-1-ylmethyl}azetidine-1-carboxylic acid] | 6.00 to 7.00 | 6.00 to 7.00 | 
CCc1ccc(N(CC(C)C)S(=O)(=O)c2ccc3c(c2)C(O)CCN3CC2(C)CCOCC2)cc1 (stereo not shown) [Compound 14, 1-(4-methyltetrahydropyran-4-ylmethyl)-4-hydroxy-1,2,3,4-tetrahydroquinoline-6-sulfonic acid (4-ethylphenyl)isobutylamide] | > 7.00 | > 7.00 | 
Cc1cc(C)c(N(CC(C)C)S(=O)(=O)c2ccc3c(c2)C(O)CCN3CC2CCOCC2)cn1 (stereo not shown) [Compound 66, 4-hydroxy-1-(tetrahydropyran-4-ylmethyl)-1,2,3,4-tetrahydroquinoline-6-sulfonic acid (4,6-dimethylpyridin-3-yl)isobutylamide] | < 6.00 | < 6.00 | 
CCc1ccc(N(CC(C)C)S(=O)(=O)c2ccc3c(c2)C(O)CCN3Cc2ccnnc2)cc1 (stereo not shown) [Compound 29, 4-hydroxy-1-pyridazin-4-ylmethyl-1,2,3,4-tetrahydroquinoline-6-sulfonic acid (4-ethylphenyl)isobutylamide] | > 7.00 | > 7.00 | 
CCc1ccc(N(CC(C)C)S(=O)(=O)c2ccc3c(c2)C(O)CCN3Cc2cn[nH]c2)cc1 (stereo not shown) [Compound 45, 4-hydroxy-1-(1H-pyrazol-4-ylmethyl)-1,2,3,4-tetrahydroquinoline-6-sulfonic acid (4-ethylphenyl)isobutylamide] | > 7.00 | 6.00 to 7.00 | 
CCc1ccc(N(CC(C)C)S(=O)(=O)c2ccc3c(c2)C(O)CCN3CC2CNC(=O)O2)cc1 (stereo not shown) [Compound 23, 4-hydroxy-1-(2-oxooxazolidin-5-ylmethyl)-1,2,3,4-tetrahydroquinoline-6-sulfonic acid (4-ethylphenyl)isobutylamide] |  | 6.00 to 7.00 | 
CCc1ccc(N(CC(C)C)S(=O)(=O)c2ccc3c(c2)C(O)CCN3C2CCNCC2)cc1 (stereo not shown) [Compound 57, 4-hydroxy-1-piperidin-4-yl-1,2,3,4-tetrahydroquinoline-6-sulfonic acid (4-ethylphenyl)isobutylamide] |  | < 6.00 | 
